Source: article PMC3663048 (Journal of medicinal chemistry, 2011)
Substitutions are numbered along the chain they refer to. One block for each compound: values may come before it.

Experiments:
endogenous Nek2 = molecular target: T1, endogenous Nek2 (Homo sapiens, UniProt P51955); assay: Immunoprecipitation kinase assay of endogenous Nek2 from treated A549 cells; type: cell-based; details: A549, read-out: Inhibition of cellular Nek2
T1 sequence (P51955 1-445): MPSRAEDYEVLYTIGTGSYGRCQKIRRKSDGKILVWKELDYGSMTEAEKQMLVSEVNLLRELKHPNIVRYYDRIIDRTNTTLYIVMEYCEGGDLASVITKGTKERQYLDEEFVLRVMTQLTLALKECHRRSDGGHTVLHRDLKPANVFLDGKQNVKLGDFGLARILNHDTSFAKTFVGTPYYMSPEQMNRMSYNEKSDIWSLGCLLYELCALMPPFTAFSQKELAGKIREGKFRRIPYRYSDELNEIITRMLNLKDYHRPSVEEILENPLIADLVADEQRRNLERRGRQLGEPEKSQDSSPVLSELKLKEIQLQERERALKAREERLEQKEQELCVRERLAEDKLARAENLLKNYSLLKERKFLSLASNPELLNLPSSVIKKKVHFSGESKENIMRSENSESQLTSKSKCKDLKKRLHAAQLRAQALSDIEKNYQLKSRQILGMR

Nek2 = molecular target: T2, Nek2 (Homo sapiens, UniProt P51955); assay: In vitro kinase assay with WT Nek2; details: for Percent inhibition of Nek2 kinase activity: 5 μM, 30 min pre-incubation; for Potency against WT Nek2 (dose-response): WT Nek2, in vitro kinase assay; for inhibition at 5 µM: read-out: Percent inhibition of Nek2 kinase activity
T2 sequence (P51955 1-445): T1 sequence (P51955 1-445)

C22V Nek2 = molecular target: T3, C22V Nek2 (Homo sapiens, UniProt P51955, C22V); assay: In vitro kinase assay with C22V Nek2; type: biochemical; details: C22V mutant
T3 sequence (P51955 1-445 C22V): T1 sequence (P51955 1-445) with C22V

[1] = molecular target: T4, WT Nek2 kinase domain (aa 1-271) (Homo sapiens, UniProt P51955); assay: Mass spectrometry-based covalent binding assay, WT Nek2 kinase domain; details: ten-fold molar excess of compound, physiological pH
T4 sequence (P51955 1-271): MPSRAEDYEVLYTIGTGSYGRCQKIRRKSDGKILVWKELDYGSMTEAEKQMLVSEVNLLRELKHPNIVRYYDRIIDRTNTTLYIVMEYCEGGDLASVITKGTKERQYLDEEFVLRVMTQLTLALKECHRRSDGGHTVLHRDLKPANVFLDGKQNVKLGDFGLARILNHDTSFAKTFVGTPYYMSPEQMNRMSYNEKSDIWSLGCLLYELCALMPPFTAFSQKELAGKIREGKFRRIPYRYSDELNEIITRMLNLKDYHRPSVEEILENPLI

[2] = test system: monastrol-arrested A549 cells; assay: Mitotic exit of monastrol-arrested A549 cells; type: cell-based, human; details: 45 min; for Phospho-Ser10 histone H3 staining (mitotic marker): 5 μM

Potency against C22V Nek2 compared to WT (C22V Nek2): significantly less potent | Alkylation of WT Nek2 kinase domain (ESI-MS) [1]: alkylated WT Nek2 at a single site | Percent inhibition of Nek2 kinase activity (Nek2): nearly complete inhibition | Potency against WT Nek2 (dose-response) (Nek2): submicromolar | inhibition at 5 µM (Nek2): > 80%
Compound: C#CC(=O)Nc1ccc2c(c1)/C(=C/c1ccc[nH]1)C(=O)N2 [compound 8, (Z)-N-(3-((1H-Pyrrol-2-yl)methylene)-2-oxoindolin-5-yl)propiolamide]

Alkylation of WT Nek2 kinase domain (ESI-MS) [1]: reacted stoichiometrically
Compound: CCc1nc(C)c(/C=C2\C(=O)Nc3ccc(C(=O)CCl)cc32)[nH]1 [compound 11, (Z)-5-(2-Chloroacetyl)-3-((2-ethyl-4-methyl-1H-imidazol-5-yl)methylene)indolin-2-one]

Potency against C22V Nek2 compared to WT (C22V Nek2): significantly less potent | Alkylation of WT Nek2 kinase domain (ESI-MS) [1]: alkylated WT Nek2 at a single site | Potency against WT Nek2 (dose-response) (Nek2): submicromolar | inhibition at 5 µM (Nek2): > 80%
Compound: O=C1Nc2ccc(C(=O)CCl)cc2/C1=C/c1ccc[nH]1 [compound 2, (Z)-3-((1H-Pyrrol-2-yl)methylene)-5-(2-chloroacetyl)indolin-2-one]

Second part, the compound before the results:

Compound: CC#CC(=O)Nc1ccc2c(c1)/C(=C/c1[nH]c(CC)nc1C)C(=O)N2 [compound 18, (Z)-N-(3-((2-Ethyl-4-methyl-1H-imidazol-5-yl)methylene)-2-oxoindolin-5-yl)but-2-ynamide]
inhibition at 5 µM (endogenous Nek2): 10 to 25% | IC50 (Nek2): ~20 µM

Compound: C#CC(=O)Nc1ccc2c(c1)/C(=C/c1[nH]cnc1C)C(=O)N2 [compound 15, (Z)-N-(3-((4-Methyl-1H-imidazol-5-yl)methylene)-2-oxoindolin-5-yl)propiolamide]
Phospho-Ser10 histone H3 staining (mitotic marker) [2]: devoid of this mitotic marker | % mitotic exit (5 μM) ([2]; immunofluorescence): 80%

Compound: C=CC(=O)Nc1ccc2c(c1)/C(=C/c1ccc[nH]1)C(=O)N2 [compound 7, (Z)-N-(3-((1H-Pyrrol-2-yl)methylene)-2-oxoindolin-5-yl)acrylamide]
Percent inhibition of Nek2 kinase activity (Nek2): ineffective

Compound: O=C1NC(=NCc2cccs2)S/C1=C\c1ccc2ncccc2c1 [compound 19, reference compound]
Phospho-Ser10 histone H3 staining (mitotic marker) [2]: devoid of this mitotic marker
